According to ChEMBL document CHEMBL1128778 (Bioorg Med Chem Lett, 1995):

Key:
Mus musculus [1] = organism: Mus musculus; experiment: Compound was evaluated for its effective dose in the oral mouse cholesterol biosynthesis assay.; type: functional
Squalene synthase = target: T1, Squalene synthase (Rattus norvegicus, UniProt Q02769); experiment: Inhibitory activity against squalene synthase in rat liver; not active
T1 sequence (Q02769 whole entry): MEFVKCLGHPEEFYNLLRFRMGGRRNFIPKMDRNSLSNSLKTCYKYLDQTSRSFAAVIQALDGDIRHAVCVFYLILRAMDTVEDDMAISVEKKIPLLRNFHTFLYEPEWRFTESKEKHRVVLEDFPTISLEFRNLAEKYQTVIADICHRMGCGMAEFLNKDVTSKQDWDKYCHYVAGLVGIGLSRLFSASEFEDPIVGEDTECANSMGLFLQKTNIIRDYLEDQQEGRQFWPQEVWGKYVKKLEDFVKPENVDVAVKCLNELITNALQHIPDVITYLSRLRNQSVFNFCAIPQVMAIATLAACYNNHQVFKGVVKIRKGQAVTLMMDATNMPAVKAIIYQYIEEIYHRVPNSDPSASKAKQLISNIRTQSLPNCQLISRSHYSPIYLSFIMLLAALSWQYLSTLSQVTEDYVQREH

Rattus norvegicus = organism: Rattus norvegicus; experiment: Dose required for inhibition of cholesterol biosynthesis in rats was determined; type: functional
Mus musculus [2] = experiment: Ability to inhibit mouse hepatic cholesterol biosynthesis when dosed orally at 6 mg/kg; type: functional; details: route oral
Mus musculus [3] = experiment: Ability to inhibit mouse hepatic cholesterol biosynthesis when dosed orally at 24 mg/kg; type: functional; details: route oral
Mus musculus [4] = experiment: Ability to inhibit mouse hepatic cholesterol biosynthesis when dosed orally at 12 mg/kg; type: functional; details: route oral
[5] = Mus musculus, po, read-out: ED50

C=C(CCC12OC(C(=O)OCCC)C(O)(C(=O)OCOC(=O)C(C)(C)C)C(C(=O)O)(O1)[C@H](OC(=O)/C=C/[C@@H](C)C[C@@H](C)CC)[C@H]2O)[C@@H](OC(C)=O)[C@H](C)Cc1ccccc1 (stereo partly drawn)
ED50 (Mus musculus [1]; [5]): 2 mg/kg | Ki (Squalene synthase): Not Active

C=C(CCC12OC(C(=O)OC)C(O)(C(=O)OCOC(=O)C(C)(C)C)C(C(=O)O)(O1)[C@H](OC(=O)/C=C/[C@@H](C)C[C@@H](C)CC)[C@H]2O)[C@@H](OC(C)=O)[C@H](C)Cc1ccccc1 (stereo partly drawn)
ED50 (Mus musculus [1]; [5]): 3.3 mg/kg | Ki (Squalene synthase): Not Active

C=C(CCC12OC(C(=O)OCC)C(O)(C(=O)OCOC(=O)C(C)(C)C)C(C(=O)O)(O1)[C@H](OC(=O)/C=C/[C@@H](C)C[C@@H](C)CC)[C@H]2O)[C@@H](OC(C)=O)[C@H](C)Cc1ccccc1 (stereo partly drawn)
ED50 (Mus musculus [1]; [5]): 2.6 mg/kg | ED50 (Rattus norvegicus): 18 mg/kg | Ki (Squalene synthase): Not Active

C=CCOC(=O)C1OC2(CCC(=C)[C@@H](OC(C)=O)[C@H](C)Cc3ccccc3)OC(C(=O)O)([C@H](OC(=O)/C=C/[C@@H](C)C[C@@H](C)CC)[C@H]2O)C1(O)C(=O)OCOC(=O)C(C)(C)C (stereo partly drawn)
ED50 (Mus musculus [1]; [5]): 2 mg/kg | Ki (Squalene synthase): Not Active

C=C(CCC12OC(C(=O)OC(C)C)C(O)(C(=O)OCOC(=O)C(C)(C)C)C(C(=O)O)(O1)[C@H](OC(=O)/C=C/[C@@H](C)C[C@@H](C)CC)[C@H]2O)[C@@H](OC(C)=O)[C@H](C)Cc1ccccc1 (stereo partly drawn)
ED50 (Mus musculus [1]; [5]): 4 mg/kg | Ki (Squalene synthase): Not Active

C=C(CCC12OC(C(=O)OCCC(C)C)C(O)(C(=O)OCOC(=O)C(C)(C)C)C(C(=O)O)(O1)[C@H](OC(=O)/C=C/[C@@H](C)C[C@@H](C)CC)[C@H]2O)[C@@H](OC(C)=O)[C@H](C)Cc1ccccc1 (stereo partly drawn)
ED50 (Mus musculus [1]): 9 mg/kg | ED50 (Mus musculus [1]; [5]): 9 mg/kg | Ki (Squalene synthase): Not Active

C=C(CCC12OC(C(=O)OCCCC)C(O)(C(=O)OCOC(=O)C(C)(C)C)C(C(=O)O)(O1)[C@H](OC(=O)/C=C/[C@@H](C)C[C@@H](C)CC)[C@H]2O)[C@@H](OC(C)=O)[C@H](C)Cc1ccccc1 (stereo partly drawn)
inhibition in vivo at 6 mg/kg (Mus musculus [2]): 18% | Ki (Squalene synthase): Not Active

C=C(CCC12OC(C(=O)OCC(=O)OC)C(O)(C(=O)OCOC(=O)C(C)(C)C)C(C(=O)O)(O1)[C@H](OC(=O)/C=C/[C@@H](C)C[C@@H](C)CC)[C@H]2O)[C@@H](OC(C)=O)[C@H](C)Cc1ccccc1 (stereo partly drawn)
inhibition in vivo at 6 mg/kg (Mus musculus [2]): 0% | Ki (Squalene synthase): Not Active

C=C(CCC12OC(C(=O)OCCOC)C(O)(C(=O)OCOC(=O)C(C)(C)C)C(C(=O)O)(O1)[C@H](OC(=O)/C=C/[C@@H](C)C[C@@H](C)CC)[C@H]2O)[C@@H](OC(C)=O)[C@H](C)Cc1ccccc1 (stereo partly drawn)
inhibition in vivo at 6 mg/kg (Mus musculus [2]): 18% | Ki (Squalene synthase): Not Active

C=C(CCC12OC(C(=O)OCCC(C)C)C(O)(C(=O)OCOC(C)=O)C(C(=O)O)(O1)[C@H](OC(=O)/C=C/[C@@H](C)C[C@@H](C)CC)[C@H]2O)[C@@H](OC(C)=O)[C@H](C)Cc1ccccc1 (stereo partly drawn)
ED50 (Mus musculus [1]; [5]): 6 mg/kg

C=C(CCC12OC(C(=O)O)C(O)(C(=O)OCOC(=O)C(C)(C)C)C(C(=O)O)(O1)[C@H](OC(=O)/C=C/[C@@H](C)C[C@@H](C)CC)[C@H]2O)[C@@H](OC(C)=O)[C@H](C)Cc1ccccc1 (stereo partly drawn)
inhibition in vivo at 24 mg/kg (Mus musculus [3]): 0%

C=C(CCC12OC(C(=O)NC(C)C)C(O)(C(=O)OCOC(=O)C(C)(C)C)C(C(=O)O)(O1)[C@H](OC(=O)/C=C/[C@@H](C)C[C@@H](C)CC)[C@H]2O)[C@@H](OC(C)=O)[C@H](C)Cc1ccccc1 (stereo partly drawn)
inhibition in vivo at 24 mg/kg (Mus musculus [3]): 41%

C=C(CCC12OC(C(=O)NCCOC)C(O)(C(=O)OCOC(=O)C(C)(C)C)C(C(=O)O)(O1)[C@H](OC(=O)/C=C/[C@@H](C)C[C@@H](C)CC)[C@H]2O)[C@@H](OC(C)=O)[C@H](C)Cc1ccccc1 (stereo partly drawn)
inhibition in vivo at 12 mg/kg (Mus musculus [4]): 18% | Ki (Squalene synthase): Not Active

C=C(CCC12OC(C(=O)OCC(=O)OC(C)(C)C)C(O)(C(=O)OCOC(=O)C(C)(C)C)C(C(=O)O)(O1)[C@H](OC(=O)/C=C/[C@@H](C)C[C@@H](C)CC)[C@H]2O)[C@@H](OC(C)=O)[C@H](C)Cc1ccccc1 (stereo partly drawn)
inhibition in vivo at 24 mg/kg (Mus musculus [3]): 45% | Ki (Squalene synthase): Not Active

C=C(CCC12OC(C(=O)O)C(O)(C(=O)O)C(C(=O)O)(O1)[C@H](OC(=O)/C=C/[C@@H](C)C[C@@H](C)CC)[C@H]2O)[C@@H](OC(C)=O)[C@H](C)Cc1ccccc1 (stereo partly drawn) [ZARAGOZIC ACID A]
ED50 (Mus musculus [1]; [5]): 100 mg/kg
